Measurements published in patent US11034692B1 (Genentech, Inc., priority 2017, dated 2021).
Where two headings read alike, the source gives them in different places.

Target: HPK1
Experiment: HPK1 Lantha Binding Assay ("Lanth")
Summary of the method: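 TR-FRET tracer displacement with 2 nM GST-tagged kinase, 2 nM Eu-anti-GST antibody and 15 nM Tracer222 at 23 C. Enzyme–antibody preincubated 1 h with compound, then tracer added for 1 h; 340 nm excitation, 615/665 nm emission. Ki from Morrison fit over an 11-point 5-fold dilution.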

[1] = Table B1-1, read-out: HPK1 Ki (μM) (Lanth)
[2] = Table B1-2, read-out: HPK1 Ki, L = Lanth

Row | Ki [1] | Ki [2] | SMILES
1 | < 0.02 nM |  | COCCn1cc([C@@H]2C[C@H]2C(=O)Nc2cc3cc(-c4cnccc4C)nc(N)c3cn2)cn1 [Compound 330, (1R,2R)—N-(8-amino-6-(4-methylpyridin-3-yl)-2,7-naphthyridin-3-yl)-2-(1-(2-methoxyethyl)-1H-pyrazol-4-yl)cyclopropanecarboxamide]
2 | 1.12 nM |  | COCCn1cc([C@H]2C[C@@H]2C(=O)Nc2cc3cc(-c4cnccc4C)nc(N)c3cn2)cn1 [Compound 331, (1S,2S)—N-(8-amino-6-(4-methylpyridin-3-yl)-2,7-naphthyridin-3-yl)-2-(1-(2-methoxyethyl)-1H-pyrazol-4-yl)cyclopropanecarboxamide]
3 | 345 nM |  | Cc1ccncc1-c1cc2cc(NCC(F)F)ncc2c(N)n1 [Compound 338, N6-(2,2-difluoroethyl)-3-(4-methylpyridin-3-yl)-2,7-naphthyridine-1,6-diamine]
4 |  | 1.4 nM | CC1=CN(C)C(=O)Cc2nc(Nc3cc4cc(-c5cnccc5C)nc(N)c4cn3)ccc21 [Compound 418, 2-((8-amino-6-(4-methylpyridin-3-yl)-2,7-naphthyridin-3-yl)amino)-5,7-dimethyl-7,9-dihydro-8H-pyrido[2,3-d]azepin-8-one]
5 |  | 0.02 nM | Cc1cccc(F)c1-c1cc2cc(Nc3cc4n(n3)CC(=O)N(C)CC4)ncc2c(N)n1 [Compound 426, 2-((8-amino-6-(2-fluoro-6-methylphenyl)-2,7-naphthyridin-3-yl)amino)-6-methyl-5,6-dihydro-4H-pyrazolo[1,5-d][1,4]diazepin-7(8H)-one]

Second part, the molecule before the results:

Row | SMILES | Ki [1] | Ki [2]
6 | Cn1cc([C@@H]2C[C@H]2C(=O)Nc2cc3c(Cl)c(-c4cnccc4CCO)nc(N)c3cn2)cn1 [Compound 333, (1R,2R)—N-(8-amino-5-chloro-6-(4-(2-hydroxyethyl)pyridin-3-yl)-2,7-naphthyridin-3-yl)-2-(1-methyl-1H-pyrazol-4-yl)cyclopropanecarboxamide] | 0.432 nM | 
7 | Cc1cc(-c2ccccc2)ncc1-c1cc2cc(NC(=O)[C@@H]3C[C@H]3CC#N)ncc2c(N)n1 [Compound 334, (1R,2S)—N-[8-amino-6-(4-methyl-6-phenylpyridin-3-yl)-2,7-naphthyridin-3-yl]-2-(cyanomethyl)cyclopropane-1-carboxamide] | 20.4 nM | 
8 | Cc1cc(-c2ccccc2)ncc1-c1cc2cc(NC(=O)[C@H]3C[C@@H]3CC#N)ncc2c(N)n1 [Compound 335, (1S,2R)—N-[8-amino-6-(4-methyl-6-phenylpyridin-3-yl)-2,7-naphthyridin-3-yl]-2-(cyanomethyl)cyclopropane-1-carboxamide] | 4.41 nM | 
9 | Cc1cccc(F)c1-c1cc2cc(NC(=O)[C@@H]3[C@@H](C)[C@H]3c3cnn(C)c3)ncc2c(N)n1 [Compound 354, (1R,2S,3R)—N-[8-amino-6-(2-fluoro-6-methylphenyl)-2,7-naphthyridin-3-yl]-2-methyl-3-(1-methyl-1H-pyrazol-4-yl)cyclopropane-1-carboxamide] |  | 0.083 nM
10 | Cc1cccc(F)c1-c1cc2cc(NC(=O)[C@H]3[C@@H](C)[C@@H]3c3cnn(C)c3)ncc2c(N)n1 [Compound 355, (1S,2S,3S)—N-[8-amino-6-(2-fluoro-6-methylphenyl)-2,7-naphthyridin-3-yl]-2-methyl-3-(1-methyl-1H-pyrazol-4-yl)cyclopropane-1-carboxamide] |  | 1.8 nM
11 | Cc1cccc(F)c1-c1cc2cc(NC(=O)[C@H]3[C@H](C)[C@@H]3c3cnn(C)c3)ncc2c(N)n1 [Compound 357, (1S,2R,3S)—N-[8-amino-6-(2-fluoro-6-methylphenyl)-2,7-naphthyridin-3-yl]-2-methyl-3-(1-methyl-1H-pyrazol-4-yl)cyclopropane-1-carboxamide] |  | 2.7 nM
12 | Cc1ccncc1-c1cc2cc(NC(=O)[C@H]3[C@@H]4CC(NS(C)(=O)=O)C[C@@H]43)ncc2c(N)n1 (stereo partly drawn) [Compound 412, N-(8-amino-6-(4-methylpyridin-3-yl)-2,7-naphthyridin-3-yl)-3-(methylsulfonamido)bicyclo[3.1.0]hexane-6-carboxamide] |  | 96 nM
